Experimental data: PubChem BioAssay AID1996
Converted amounts (≈) assume the structure as drawn.

Details: buffer; pH 7.4; 200.0 µM

| Structure (SMILES) | solubility kinetic [µg/mL] |
| --- | --- |
| CCc1cc(=O)[nH]c(SCc2cccnc2)n1 | > 37.1 |
| O=C(/C=C\c1ccccc1)Oc1cccc2cccnc12 | 17.3 (≈ 62.8 µM) |
| Cc1ccc(C(C)C)c(OCCNC(=O)c2ccccc2O)c1 | < 0.7 |
| Cc1ccc(NS(=O)(=O)c2ccc3c(c2)CCC(=O)N3)cc1 | > 47.5 |
| Cc1ccc(C(=O)Nc2cccc(NC(=O)c3ccc(C)o3)n2)o1 | 4 (≈ 12.3 µM) |
| NC(=O)CS(=O)(=O)c1nc2ccccc2n1Cc1ccccn1 | > 49.6 |
| O=C(c1ccccc1)c1ccccc1NC(=O)C1CCCN1Cc1ccccc1 (centres undefined) | 2.6 (≈ 6.76 µM) |
| COc1ccc(C(CCO)NC(=O)c2cccs2)cc1OC (centres undefined) | > 48.2 |
| O=C(CS(=O)(=O)c1ccccc1)Nc1ccccn1 | > 41.4 |
| C=CCOc1ccc(/C=C2\SC(=Nc3cccnc3)NC2=O)cc1 | 0.7 (≈ 2.07 µM) |
| CCN(CC)CCNC(=O)c1ccc(N)cc1.Cl | > 40.8 |
| CCOc1cccc(-c2nnc(SCC(=O)NC3CC3)n2C)c1 | > 49.9 |
| N#Cc1ccc(OCC(=O)NCCN2CCOCC2)cc1 | > 43.4 |
| CCOc1ccccc1NC(=O)c1ccc(OCC(=O)N2CCOCC2)c(OC)c1 | > 62.2 |
| Cc1nnc(SC(C)C(=O)Nc2ccc(Cl)cc2Cl)[nH]c1=O (centres undefined) | > 53.9 |
| CN1C2CCC1CC(NC(=O)c1cc(Cl)cc3[nH]cnc13)C2 (centres undefined) | 40.7 (≈ 128 µM) |
| Cc1ccc(N(CC(=O)Nc2cc(C)ccc2C)S(C)(=O)=O)cc1 | 33.7 (≈ 97.3 µM) |
| Cc1ccccc1OC(C)C(=O)N1CCN(c2ccccn2)CC1 (centres undefined) | > 48.8 |
| Cc1ccc(NC(=O)C2COc3ccccc3O2)c(C)c1 (centres undefined) | 33 (≈ 116 µM) |
| CC(CCc1ccccc1)NC(=O)Cc1cccs1 (centres undefined) | 36 (≈ 132 µM) |
| CN(C)CC/C=C1/c2ccccc2CS(=O)(=O)c2ccccc21 | 47.6 (≈ 145 µM) |
| CC(C)c1ccccc1NC(=O)c1ccc2ncsc2c1 | 21 (≈ 70.9 µM) |
| CC(=O)c1c(O)c2ccccc2n(C)c1=O | 27.3 (≈ 126 µM) |
| O=C(Cc1ccccc1)NCC(=O)N1CCc2ccccc2C1 | > 46.3 |

| Structure (SMILES) | solubility kinetic [µg/mL] |
| --- | --- |
| CCOc1ccc(OCC)c(S(=O)(=O)NCc2ccccc2)c1 | 40.7 (≈ 121 µM) |
| COCc1nnc(NC(=O)C2CC(=O)N(C3CCCCC3)C2)s1 (centres undefined) | > 50.8 |
| Cc1cccc(Nc2c([N+](=O)[O-])ccc3nonc23)c1C | < 0.1 |
| CC1=NCCN1CCNC(=O)Nc1ccc(F)cc1 | > 39.6 |
| CCNC(=O)NC(=O)CN(C)c1ccccc1 | > 35.3 |
| N#Cc1ccccc1NC(=O)c1cc(=O)c2ccccc2o1 | 1.9 (≈ 6.55 µM) |
| c1ccc2oc(-c3csc(N4CCOCC4)n3)cc2c1 | 4.7 (≈ 16.4 µM) |
| O=C(Nc1cccc([N+](=O)[O-])c1)N1CCN(c2ccccc2)CC1 | 3.6 (≈ 11 µM) |
| Cc1cccc(OCC(=O)NC2CC(C)(C)NC(C)(C)C2)c1 | > 45.7 |
| O=C(O)CN1C(=O)C(=O)N(Cc2ccc(C(F)(F)F)cc2)C1=O | > 49.5 |
| COc1ccc(NC(=O)C(Cc2ccccc2)n2cccc2)cc1 (centres undefined) | 26.5 (≈ 82.7 µM) |
| CCCCn1c(O)c(C(CC)=NCCCn2ccnc2)c(=O)[nH]c1=O | 48.2 (≈ 139 µM) |
| CC(OC(=O)c1cccc(O)c1)C(=O)N(C)Cc1ccccc1 (centres undefined) | > 47 |
| O=C(COC(=O)COc1ccc(Br)cc1)NC1CCCC1 | 13.3 (≈ 37.3 µM) |
| O=C(COc1ccc(F)cc1)Nc1ccc2c(c1)OCCO2 | 7.9 (≈ 26 µM) |
| Cc1ccc(C(=O)NCC(=O)Nc2ccc3c(c2)CCC3)cc1 | 3 (≈ 9.73 µM) |
| C[C@H](NC(=O)c1ccco1)C(=O)Nc1ccc(C#N)cc1 | > 42.5 |
| O=C(OCc1ccc([N+](=O)[O-])cc1)c1cnc(Cl)c(Cl)c1 | 0.4 (≈ 1.22 µM) |
| Cc1ccc(NC(=O)CCN2C(=O)OC(C)(C)C2(C)O)cc1 (centres undefined) | 34 (≈ 111 µM) |
| Cc1ccc(N2C(=O)C3CCCN3C2=S)cc1C (centres undefined) | > 39.1 |
| COc1ccccc1C(=O)NCCC(=O)Nc1ccc(C)cn1 | 43.7 (≈ 139 µM) |
| CN1CCN(C2CCN(c3cccc(Cl)c3)CC2)CC1CCO (centres undefined) | 36.8 (≈ 109 µM) |
| O=C(O)C1CCCCC1C(=O)Nc1ccc(OCc2ccccc2)cc1 (centres undefined) | 44.2 (≈ 125 µM) |
| CCn1c(=O)c2cc(C(=O)NC(C)C)sc2c2ccccc21 | 1 (≈ 3.18 µM) |

| Structure (SMILES) | solubility kinetic [µg/mL] |
| --- | --- |
| O=C(CN1CCN(c2ccccc2)CC1)NCc1ccc(F)cc1 | > 49.1 |
| CCCNC(=S)N1CCC(C(=O)c2ccc(Cl)cc2)CC1 | 2.2 (≈ 6.77 µM) |
| O=C(Nc1cccnc1Cl)c1ccc(=O)oc1 | > 37.6 |
| CN(C)/C=C1\C(=O)N(c2ccc(F)cc2F)C(c2cccnc2)S1(=O)=O (centres undefined) | > 56.9 |
| CC(OC(=O)C1CC1)C(=O)Nc1cc(C(F)(F)F)ccc1Cl (centres undefined) | 32 (≈ 95.3 µM) |
| COc1ccc(/C(C)=N\O)cc1OC | 16.9 (≈ 86.6 µM) |
| Nc1nccnc1C(=O)OCC(=O)c1ccc[nH]1 | > 36.9 |
| Cc1c(C)c(C)c(CN2CCSCC2)c(C)c1C | < 0.6 |
| Cc1c(C(=O)C(=O)NCc2ccco2)c2ccccc2n1C | > 44.4 |
| O=c1c2ccccc2ncn1-c1ccc(Cl)cc1Cl | 33.8 (≈ 116 µM) |
| CN(C)/C(=N\S(=O)(=O)c1ccccc1)c1ccc(Cl)cc1 | > 48.4 |
| CCC1(C)Cc2ccccc2-c2nc(NCCCO)[nH]c(=O)c21 (centres undefined) | 44 (≈ 140 µM) |
| CCOC(=O)C1C(c2ccccc2)NC(=S)NC1(C)O (centres undefined) | 41.6 (≈ 141 µM) |
| COc1ccc([C@@H](O)[C@@H](N)c2ccccc2)cc1.Cl | 41.7 |
| O=C1CSC(c2ccccn2)N1c1ccccc1F (centres undefined) | 40.6 (≈ 148 µM) |
| N#Cc1ccccc1NC(=O)COC(=O)/C=C/c1ccc(S(=O)(=O)N2CCOCC2)cc1 | 5.7 (≈ 12.5 µM) |
| O=S(=O)(NCCC1CC1(Cl)Cl)c1ccc(Cl)cc1 (centres undefined) | 45.9 (≈ 140 µM) |
| CC(C)N1CC(COc2ccccc2Cl)OC1=O (centres undefined) | > 40.5 |
| COC(=O)c1ccc(CNC(=O)COC(=O)/C=C/c2ccc(OC)c(OC)c2)cc1 | 6.6 (≈ 16 µM) |
| Cc1n(Cc2ccccc2)c2ccccc2[n+]1Cc1ccccc1.[Cl-] | 51.9 |
| CCN1C=C(C(=O)OC)C(c2cccc(OC)c2OC)C(C(=O)OC)=C1 | 8.4 (≈ 23.2 µM) |
| CC1CCCCN1C(=O)c1cc(S(=O)(=O)N2CCOCC2)ccc1Cl (centres undefined) | > 58 |
| O=[N+]([O-])c1cccc2c(S(=O)(=O)N3CCCCC3)cccc12 | 9.5 (≈ 29.7 µM) |
| CC1Oc2ccccc2N(CC(=O)N2CCCC2)C1=O (centres undefined) | > 41.1 |

| Structure (SMILES) | solubility kinetic [µg/mL] |
| --- | --- |
| c1ccc2c(c1)CC(CN1CCNCC1)O2 (centres undefined) | > 32.7 |
| Cc1cc(C)cc(C(=O)N2CCN(c3ccccn3)CC2)c1 | 42.7 (≈ 145 µM) |
| Cc1cnc(C(=O)OCC(=O)c2cc(C)n(C)c2C)cn1 | > 43.1 |
| CC1CCN(CC(O)Cn2c3ccccc3c3ccccc32)CC1 (centres undefined) | 38.7 (≈ 120 µM) |
| O=C1NC2(CCCCC2)C(=O)N1CC(=O)N1CCc2ccccc21 | 10.6 (≈ 32.4 µM) |
| COC(=O)c1sc(-c2ccc(Cl)cc2)cc1N | < 0.6 |
| CC(=O)c1ccc(S(=O)(=O)N2CCN(C)CC2)cc1 | > 42.4 |
| COc1cccc(C(=O)c2c(C)c(CCC#N)n3ccccc23)c1 | 43.5 (≈ 137 µM) |
| CCOP(=O)(OCC)C(Nc1ccccc1)c1cccnc1 (centres undefined) | > 48 |
| COCC(=O)N1CCCC(CNS(=O)(=O)c2ccc(OC)cc2)C1 (centres undefined) | > 53.5 |
| O=C(Nc1ccccc1N1CCCC1)C1=COCCO1 | > 41.1 |
| CCN1C(=O)/C(=C\N(C)C)S/C1=N\S(=O)(=O)c1ccccc1 | 49.3 (≈ 145 µM) |
| CCC1NC(=O)c2ccccc2N1c1cccc(Cl)c1 (centres undefined) | 29.8 (≈ 104 µM) |
| CCc1ccc(C2NC(=O)c3ccccc3O2)cc1 (centres undefined) | 2.8 (≈ 11.1 µM) |
| OC[C@@H](O)C1OC2NC(=S)OC2C1O (some centres undefined) | > 33.2 |
| O=C(Oc1ccc2c(c1)O/C(=C\c1ccncc1)C2=O)c1cccs1 | 2.2 (≈ 6.3 µM) |
| Cc1ccc(S(=O)(=O)N2CCOCC2)cc1NC(=O)COC(=O)c1cncc(Br)c1 | > 74.8 |
| NC(=O)C1CCN(CC(O)CSc2ccc(F)cc2)CC1 (centres undefined) | 37.3 (≈ 119 µM) |
| O=C1CSc2ccc(C(=O)NCc3ccccn3)cc2N1 | > 44.9 |
| CCN(Cc1cc(=O)[nH]c2ccccc12)C(=O)c1ccc(C)cc1 | 41.3 (≈ 129 µM) |
| Nc1ccn([C@H]2C[C@H](O)[C@@H](CO)O2)c(=O)n1.O | > 36.8 |
| COc1cccc(NC(=O)NCc2c(-c3ccccc3)noc2C)c1 | 2.4 (≈ 7.11 µM) |
| Cc1ccc(OCC(=O)Nc2ccc3oc(=O)ccc3c2)cc1 | 1.7 (≈ 5.5 µM) |
| CCC(=O)Nc1cccc(C(=O)N(Cc2ccccc2)Cc2ccccc2)c1 | 22.2 (≈ 59.6 µM) |

| Structure (SMILES) | solubility kinetic [µg/mL] |
| --- | --- |
| COc1ccc(S(=O)(=O)N2CCOCC2)cc1NC(=O)Cc1ccsc1 | 7.6 (≈ 19.2 µM) |
| Cc1cc(Cl)c2ccc3ccccc3c2n1 | < 0.5 |
| C=CCNc1nc(-c2c(C)nc3ncccn23)cs1 | > 40.7 |
| COCCn1c(Cc2ccccc2)nnc1SCC(=O)Nc1ccccc1 | > 57.4 |
| O=C1NC(=S)N/C1=C\C=C\c1ccccc1 | 1.7 (≈ 7.38 µM) |
| CCc1ccc(NC(=O)c2cnccn2)cc1 | 21.4 (≈ 94.2 µM) |
| Cc1ccc(-c2c[n+](CC(=O)Nc3ccccc3)c3n2CCC3)cc1.[Cl-] | > 55.2 |
| O=C(Cn1cc([N+](=O)[O-])ccc1=O)N1CCc2ccccc21 | 11.3 (≈ 37.8 µM) |
| S=C(Nc1ccccc1Cl)N1CCC(c2ccccc2)C1 (centres undefined) | 17.9 (≈ 56.5 µM) |
| S=c1nc(NCCc2ccccc2Cl)c2ccccc2[nH]1 | 0.2 (≈ 0.633 µM) |
| N#CCOC(=O)c1c2c(nc3ccccc13)CCC2 | 30.1 (≈ 119 µM) |
| CC(C)[C@H](NS(=O)(=O)c1ccccc1)C(=O)OCC(=O)NC1CCCCC1 | > 59.5 |
| COC(=O)Cc1ccc(Oc2ncc(C(F)(F)F)cc2Cl)cc1 | 8.5 (≈ 24.6 µM) |
| O=C(O)CCN1CCc2ccccc2C1c1ccncc1 (centres undefined) | > 42.4 |
| CCOC(=O)C1=C(C)N(C)C(C)=C(C(=O)OCC)C1c1ccsc1 | 2 (≈ 5.72 µM) |
| COCCCNc1nc(N)c([N+](=O)[O-])c(Nc2cc(OC)ccc2OC)n1 | < 0.1 |
| CC1CCCN(C(=O)COc2ccc3c(c2)OCO3)C1 (centres undefined) | > 41.6 |
| Cc1ccc2[nH]cc(/C=C/c3cc[n+](C)cc3)c2c1.[I-] | > 56.4 |
| CCn1c(SCC(=O)OC)nnc1-c1ccc(C)cc1 | > 43.7 |
| C=CCN1CCN(C(=O)CSc2ccccc2)CC1 | > 41.5 |
| CCOC(=O)C1CCN(C(=O)CN2C(=O)NC(C)(c3ccc4cc(OC)ccc4c3)C2=O)CC1 (centres undefined) | 15.6 (≈ 33.4 µM) |
| O=C(Cc1cccc2ccccc12)Nc1cccnc1 | 39 (≈ 149 µM) |
| O=c1c2cc(NC(=S)NC3CC3)ccc2nc2n1CCCCC2 | 34.7 (≈ 106 µM) |
